Tests used:
[1] = test system: NPCs from the SVZ of Ts65Dn mice; experiment: Differentiation of NPC cultures (MAP2/Nestin immunolocalization); format: cell-based, mouse; details: 96 h, differentiating conditions
Description: (§1) Cells were isolated from the subventricular zone (SVZ) of the lateral ventricle and the subgranular zone (SGZ) of the hippocampal dentate gyrus (DG) of newborn (P1-P2) euploid and Ts65Dn mice. Briefly, brains were removed, the SVZ and SGZ regions were isolated and individually collected in ice-cold PIPES buffer pH 7.4. After centrifugation, tissue was digested for 10 min at 37° C. using Trypsin/EDTA 0.25% (Life Technologies) aided by gentle mechanical dissociation. Cell suspension from each individual mouse was plated onto 25 cm^2 cell-culture flask (Thermo Fisher Scientific) and cultured as floating neurospheres in medium containing basic fibroblast growth factor (bFGF, 10 ng/ml; Peprotech) and epidermal growth factor (EGF, 20 ng/ml; Peprotech) using an established protocol (Meneghini et al., 2014). […] Cell proliferation was quantified as relative luminescence units (RLU) values using Cell Titer-Glo viability assay reagent (Promega) on aVictor^3-V plate reader (PerkinElmer). […] In each experiment, five fields/well (corresponding to about 150-200 cells/well) were counted with a 60× objective by a Leica DMIRB inverted fluorescence microscope. Immunoreactive cells were counted and their percentage over total viable cells was calculated. […]

[2] = test system: NPCs from the SGZ of Ts65Dn mice; experiment: Neuron maturation: cells exhibiting neuritic processes, SGZ NPCs; format: cell-based, mouse; details: 96 h, vs standard medium
Description: as §1

[3] = test system: NPCs from the SVZ of Ts65Dn mice; experiment: Neuron maturation: cells exhibiting neuritic processes, SVZ NPCs; format: cell-based, mouse; details: 96 h, vs standard medium
Description: as §1

[4] = test system: proliferating cells in the SVZ; experiment: Prenatal treatment: BrdU-positive cells in the SVZ of P2 mice; format: in vivo, mouse
Description: Conception was determined by examining the vaginal plug. […] After sacrifice, brain was excised and weighed.
One of 20 sections (n=8-10) from the beginning to the end of the hippocampal formation were subjected to double-fluorescence immunohistochemistry for BrdU and NeuN. Sections were incubated overnight at 4° C. with a primary antibody, rat monoclonal anti-BrdU antibody (AbD Serotec), diluted 1:100 in 0.1% Triton X-100 in PBS and either mouse monoclonal anti-NeuN (Millipore Bioscience Research Reagents) diluted 1:400 in 0.1% Triton X-100 in PBS. Sections were then washed in 0.1% Triton X-100 in PBS for 40 min and incubated for 2 h with a Cy3-conjugated anti-rat IgG (1:200; Jackson Immunoresearch) secondary fluorescent antibody for BrdU immunohistochemistry and FITC-conjugated anti-mouse IgG (1:200; Jackson Immunoresearch) for NeuN immunohistochemistry.
BrdU-positive cells were sampled in the caudal subventricular zone (SVZ) of the lateral ventricle overlying the dentate gyrus and from the subgranular zone (SGZ) of the dentate gyrus (FIG. 10A). The caudal SVZ is the region that stretches from the beginning to the end of the hippocampal formation (BC: 3.27-4.84 mm). Since different regions of the ventricular zone (VZ) and SVZ give origin to neurons destined to different telecephalic areas (Brazel et al., 2003), we evaluated the effects of treatment both in the dorsal and lateral part of the SVZ (FIG. 10B). For cell counting, an area was traced enclosing the whole SVZ and all cells in this area were counted. While at later life stages, neural progenitor cells are only present in the SGZ of the dentate gyrus, in P2 pups proliferating cells can be detected in the perspective molecular layer and hilus. Therefore, cells were counted within a manually-traced area enclosing the whole dentate gyrus (FIG. 10B). […] Quantification of BrdU-labeled nuclei was conducted in every 20th section. The total number of BrdU labeled cells in the SVZ and SGZ was estimated by multiplying the number counted in the sampled sections by the inverse of the section sampling fraction (ssf= 1/20).

[5] = Prenatal treatment: abortion rate, pups per litter, mortality of progeny
Description: (§2) Ts65Dn females (n=4) were bred C57BL/6JEi×C3SnHeSnJ (B6EiC3) F1 males (n=4). Conception was determined by examining the vaginal plug. Pregnant females received a daily subcutaneous injection of either 7,8-DHF (Sigma-Aldrich) in PBS with 2% DMSO (dose: 5 mg/kg) or vehicle from the embryonic (E) day 10 (E10) to the day of delivery (E20/21). […] On postnatal day 2 (P2) the progeny of 7,8-DHF-treated and vehicle-treated females received an intraperitoneal injection (150 μg/g body weight) of BrdU (Sigma) in 0.9% NaCl solution and were killed after 2 h (on P2; 4-8 animals for each group). Vehicle-treated females and their progeny will be called hereafter untreated mice. The body weight of P2 mice was recorded prior to sacrifice. After sacrifice, brain was excised and weighed.
The Ts65Dn strain is characterized by a high mortality rate during gestation (Roper et al., 2006).

[6] = Prenatal treatment: body and brain weight of P2 mice; format: in vivo, mouse; details: P2 Ts65Dn mice, embryonic treatment
Description: as §2

## O=c1cc(-c2ccccc2)oc2c(O)c(O)ccc12 [7,8-DHF, 7,8-dihydroxyflavone]
[1]
  percentage of Nestin+/MAP2- cells: no change
[1]; all concentrations, vs standard medium
  percentage of MAP2+/Nestin− cells: large increase
[2]
  concentrations that increased the percentage of cells exhibiting neuritic processes: higher than 1.1 μM
[3]
  doses that increased the percentage of cells exhibiting neuritic processes: higher than 0.3 μM
[4]; P2, treated E10-E20/21
  total number of BrdU-positive cells in the SVZ, treated Ts65Dn vs untreated euploid mice: no differences in total number of BrdU-positive cells
[4]; P2 Ts65Dn mice, dams 5 mg/kg s.c. E10-E20/21, untreated Ts65Dn approx. 22500, euploid approx. 32300
  total number of BrdU-positive cells in the SVZ: approximately 33900
[4]; P2 Ts65Dn mice, treated E10-E20/21
  increase in cell number in the SVZ vs untreated Ts65Dn: +50%
[5]; female, Ts65Dn, mouse, in vivo
  mean number of pups per litter: 5.33±2.04
[5]; mouse, in vivo
  spontaneous abortion: none of untreated and treated females underwent spontaneous abortion
[5]; treated females, mean±ES, vehicle 0.00±0.00, p=0.219
  mortality rate of the progeny: 0.66±0.81
[6]
  body weight: did not further reduce the body weight

Reference: patent US10945989B2, “Perinatal treatment with a flavonoid agonist of the TrkB receptor for BDNF rescues neurogenesis and behavior in the Ts65Dn mouse model of DS” (ALMA MATER STUDIORUM—Universita' di Bologna, priority 2017, dated 2021)
